{"source": "paper PMC10193894", "about": "(Journal of Enzyme Inhibition and Medicinal Chemistry, 2023)", "key": {"SARS-CoV-2 S-RBD": {"target": "SARS-CoV-2 S-RBD (Severe acute respiratory syndrome coronavirus 2, UniProt P0DTC2)", "test": "biochemical", "format": "binding"}, "SARS-CoV-2 pseudovirus": {"tested_on": "SARS-CoV-2 pseudovirus", "conditions": "for inhibition rate on pseudotyped SARS-CoV-2 infection: 3.2 µM"}, "[1]": {"target": "T1, NRP1-BD (the b1 domain of NRP1) (Homo sapiens, UniProt O14786)", "T1 construct": "NRP1-BD (the b1 domain of NRP1); purchased Abcam (Cambridge, MA, USA)", "T1 sequence (O14786 275-424 limits assumed)": "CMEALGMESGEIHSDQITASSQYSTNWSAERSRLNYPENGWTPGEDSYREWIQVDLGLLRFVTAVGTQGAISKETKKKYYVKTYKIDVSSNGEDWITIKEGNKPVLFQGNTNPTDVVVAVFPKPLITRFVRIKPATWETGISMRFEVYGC", "test": "Microscale thermophoresis (MST) binding to NRP1-BD", "conditions": "mean ± SD (n = 3)"}, "[2]": {"conditions": "read-out: EC50 against pseudotyped SARS-CoV-2 infection"}}, "note": "“Also recorded” adds a separate entry of the source. Where two headings read alike, the source gives them in different places. Ends that are not written are not given here.", "data": [{"compound": "Ac-EARTFLDKYNHEAEDLYYQSSLASWGSPRRAR [RN-4]", "values": [{"measurement": "Kd", "setting": "SARS-CoV-2 S-RBD", "result": "7.4 ± 0.5", "unit": "nM"}, {"measurement": "EC50", "setting": "SARS-CoV-2 pseudovirus; pseudovirus, 48 h", "result": "390 ± 90", "unit": "nM"}]}, {"compound": "C[C@@]1(C(=O)O)CC[C@]2(C)CC[C@]3(C)C4=CC(=O)c5c(cc(O)c(O)c5C=O)[C@]4(C)CC[C@@]3(C)[C@@H]2C1", "note": "[T-96, demethylzeylasteral]", "values": [{"measurement": "Kd", "setting": "SARS-CoV-2 S-RBD; read-out: S-RBD Kd", "result": "998.6 ± 8.4", "unit": "nM"}, {"measurement": "NRP1-BD Kd", "setting": "[1]", "result": "no binding; also recorded: without binding"}, {"measurement": "inhibition rate on pseudotyped SARS-CoV-2 infection", "setting": "SARS-CoV-2 pseudovirus", "result": "about 40%"}, {"measurement": "EC50", "setting": "SARS-CoV-2 pseudovirus; [2]", "result": 5420, "unit": "nM"}]}, {"compound": "Ac-EKSTLKDRFNHEAQDLKYQDSLASYRGKRPPR [RN-2]", "values": [{"measurement": "Kd", "setting": "SARS-CoV-2 S-RBD", "result": "65.3 ± 2.2", "unit": "nM"}, {"measurement": "EC50", "setting": "SARS-CoV-2 pseudovirus; pseudovirus, 48 h", "result": "2370 ± 420", "unit": "nM"}]}, {"compound": "Ac-ETQVLLDKLNHEAEDLKYQSALASHRVRRPPR [RN-5]", "values": [{"measurement": "Kd", "setting": "SARS-CoV-2 S-RBD", "result": "207 ± 4.5", "unit": "nM"}, {"measurement": "EC50", "setting": "SARS-CoV-2 pseudovirus; pseudovirus, 48 h", "result": "3720 ± 890", "unit": "nM"}]}, {"compound": "NC(N)=NCCC[C@H](NC(=O)c1sccc1NS(=O)(=O)c1cccc2nsnc12)C(=O)O", "note": "[EG00229]", "values": [{"measurement": "S-RBD Kd", "setting": "SARS-CoV-2 S-RBD", "result": "no binding; also recorded: without binding"}, {"measurement": "Kd", "setting": "[1]; value in μM", "result": "4.9 ± 0.7", "unit": "µM"}, {"measurement": "inhibition rate on pseudotyped SARS-CoV-2 infection", "setting": "SARS-CoV-2 pseudovirus", "result": 15, "unit": "%"}, {"measurement": "EC50", "setting": "SARS-CoV-2 pseudovirus; [2]", "result": "> 20000", "unit": "nM"}]}, {"compound": "Ac-QRNIYLDRHNHEAEDLKYQTALASFRPAKPAR [RN-3]", "values": [{"measurement": "Kd", "setting": "SARS-CoV-2 S-RBD", "result": "95.3 ± 2.9", "unit": "nM"}, {"measurement": "EC50", "setting": "SARS-CoV-2 pseudovirus; pseudovirus, 48 h", "result": "2870 ± 180", "unit": "nM"}]}, {"compound": "Ac-QNKVYIDKYNHEAQDLFYQSALKAHRGNRRAR [RN-1]", "values": [{"measurement": "Kd", "setting": "SARS-CoV-2 S-RBD", "result": "19.9 ± 1.4", "unit": "nM"}, {"measurement": "EC50", "setting": "SARS-CoV-2 pseudovirus; pseudovirus, 48 h", "result": "1980 ± 370", "unit": "nM"}]}]}
